compound: c1ccc2c(CCNc3ccc(Nc4ccncc4)cc3)c[nH]c2c1 [Serdemetan] + COc1cc2c(Oc3ccc(NC(=O)C4(C(=O)Nc5ccc(F)cc5)CC4)cc3F)ccnc2cc1OCCCN1CCOCC1 [Foretinib] (partner 0.25 µM); experiment: relative viability (nuclei count vs DMSO), 5 days (fraction); higher = more cells survive; details: first compound 4 µM
Procedure, shortened: (§1)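 Nuclei were stained with Hoechst during a one-step fixation (final 0.05% Triton X-100, 1% formaldehyde, 1 ug/ml Hoechst) carried out 5 days after dosing, then counted on 4× images. The cells, lung cancer lines in 1536-well plates, had been dosed by pin tool the day after seeding with one drug alone or a fixed anchor-drug dose plus five library-drug doses (not always all listed) in √10 steps. Relative viability is the nuclei count in treated wells divided by that in vehicle wells, and each value is the median of duplicate plates.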

| Cell Line | relative viability |
| --- | --- |
| SW 1573 | 0.422 |
| NCI-H838 | 1.09 |
| LCLC-103H | 0.569 |
| NCI-H520 | 0.511 |
| NCI-H2126 | 1.03 |
| EMC-BAC-2 | 0.676 |
| NCI-H2085 | 0.533 |
| Calu-6 | 0.472 |
| HCC-366 | 0.0559 |
| NCI-H1666 | 0.742 |
| NCI-H596 | 0.402 |
| LK-2 | 0.41 |
| NCI-H2087 | 0.355 |
| NCI-H2342 | 0.592 |
| SK-MES-1 | 0.534 |
| H3255 | 0.708 |
| IA-LM | 0.414 |
| A549 | 0.177 |
| SW 900 | 0.821 |
| NCI-H661 | 0.796 |
| NCI-H1299 | 0.755 |
| NCI-H1563 | 0.64 |
| ABC-1 | 0.418 |
| NCI-H358 | 0.477 |
| NCI-H650 | 0.777 |

compound: C1CC(C2=C(C1)C3=C(N2)C=CC(=C3)Cl)C(=O)N [Selisistat] + CC1(C)CCC(c2ccc(Cl)cc2)=C(CN2CCN(c3ccc(C(=O)NS(=O)(=O)c4ccc(N[C@H](CCN5CCOCC5)CSc5ccccc5)c(S(=O)(=O)C(F)(F)F)c4)cc3)CC2)C1 [Navitoclax] (partner 0.5 µM); experiment: as above; details: first compound 0.4 µM
Procedure, shortened: as §1

| Cell Line | relative viability |
| --- | --- |
| NCI-H727 | 0.501 |
| NCI-H1650 | 1.16 |
| EBC-1 | 0.526 |
| NCI-H1703 | 1.24 |
| NCI-H1993 | 0.969 |
| SW 1573 | 0.997 |
| NCI-H838 | 1.31 |
| NCI-H520 | 1.06 |
| NCI-H2126 | 0.888 |
| EMC-BAC-2 | 1.13 |
| NCI-H2085 | 1.16 |
| Calu-6 | 0.832 |
| HCC-366 | 1.15 |
| NCI-H1666 | 1.04 |
| NCI-H596 | 0.952 |
| LK-2 | 1.01 |
| NCI-H2087 | 1.13 |
| SK-MES-1 | 1.29 |
| H3255 | 0.512 |
| IA-LM | 0.787 |
| HCC-44 | 1.03 |
| A549 | 1.27 |
| NCI-H1299 | 1.1 |
| NCI-H1792 | 0.609 |

same assay, conditions: first compound 1.265 µM

| Cell Line | relative viability |
| --- | --- |
| NCI-H727 | 0.445 |
| NCI-H1650 | 1.41 |
| EBC-1 | 0.416 |
| NCI-H1703 | 1.15 |
| NCI-H1993 | 0.891 |
| SW 1573 | 0.781 |
| NCI-H838 | 1.2 |
| NCI-H520 | 0.959 |
| NCI-H2126 | 0.837 |
| EMC-BAC-2 | 1.09 |
| NCI-H2085 | 1.15 |
| Calu-6 | 0.779 |
| HCC-366 | 0.965 |
| NCI-H1666 | 1.04 |
| NCI-H596 | 0.959 |
| LK-2 | 0.746 |
| NCI-H2087 | 0.99 |
| SK-MES-1 | 1.14 |
| H3255 | 0.643 |
| IA-LM | 0.82 |
| HCC-44 | 0.955 |
| A549 | 1.14 |
| NCI-H1299 | 1.08 |
| NCI-H1792 | 0.611 |

same assay, conditions: first compound 4 µM

| Cell Line | relative viability |
| --- | --- |
| NCI-H1650 | 1.14 |
| EBC-1 | 0.433 |
| NCI-H1703 | 1.25 |
| SW 1573 | 0.93 |
| NCI-H838 | 1.13 |
| NCI-H520 | 1.18 |
| NCI-H2126 | 0.829 |
| EMC-BAC-2 | 1.07 |
| NCI-H2085 | 1.12 |
| Calu-6 | 0.84 |
| HCC-366 | 0.89 |
| NCI-H1666 | 0.911 |
| NCI-H596 | 0.944 |
| LK-2 | 0.954 |
| NCI-H2087 | 1.02 |
| SK-MES-1 | 1.4 |
| H3255 | 0.293 |
| IA-LM | 0.946 |
| HCC-44 | 0.911 |
| A549 | 1.34 |
| NCI-H1299 | 1.01 |

same assay, conditions: first compound 12.65 µM

| Cell Line | relative viability |
| --- | --- |
| NCI-H1650 | 1.31 |
| EBC-1 | 0.448 |
| NCI-H1703 | 1.42 |
| NCI-H1993 | 1.03 |
| SW 1573 | 1.15 |
| NCI-H838 | 1.12 |
| NCI-H520 | 1.13 |
| NCI-H2126 | 0.899 |
| EMC-BAC-2 | 1.15 |
| NCI-H2085 | 1.15 |
| Calu-6 | 0.82 |
| HCC-366 | 0.97 |
| NCI-H1666 | 0.77 |
| NCI-H596 | 0.904 |
| LK-2 | 0.847 |
| NCI-H2087 | 0.926 |
| SK-MES-1 | 1.26 |
| H3255 | 0.438 |
| IA-LM | 0.818 |
| HCC-44 | 0.997 |
| A549 | 1.28 |
| NCI-H1299 | 1.05 |
| NCI-H1792 | 0.629 |

same assay, conditions: first compound 40 µM

| Cell Line | relative viability |
| --- | --- |
| NCI-H727 | 0.38 |
| NCI-H1650 | 1.12 |
| EBC-1 | 0.459 |
| NCI-H1703 | 1.27 |
| NCI-H1993 | 0.986 |
| SW 1573 | 0.934 |
| NCI-H838 | 1.22 |
| NCI-H520 | 1.03 |
| NCI-H2126 | 0.913 |
| EMC-BAC-2 | 1.2 |
| NCI-H2085 | 1.21 |
| Calu-6 | 0.789 |
